Values joined by “and” are separate entries in the source; they are usually repeats but may differ in a detail not shown here. Equal values may be shown once.
Experiments:
Assay in all cases: cell-based
[1] = target: T1, human KOR (Gi3) (Homo sapiens, UniProt P41145, R257A); conditions: HEK-293T
T1 construct: expressed in transfected cells; host or cells: HEK293T

[2] = target: T2, human KOR (Gi3) (Homo sapiens, UniProt P41145, E297A); conditions: HEK-293T
T2 construct: expressed in transfected cells; host or cells: HEK293T

[3] = target: T3, human KOR (Gi3) (Homo sapiens, UniProt P41145, D105A); conditions: HEK-293T
T3 construct: expressed in transfected cells; host or cells: HEK293T

[4] = target: T4, human KOR (Gi3) (Homo sapiens, UniProt P41145, N322A); conditions: HEK-293T
T4 construct: expressed in transfected cells; host or cells: HEK293T

[5] = target: T5, human KOR (Gi3) (Homo sapiens, UniProt P41145, K200A); conditions: HEK-293T
T5 construct: expressed in transfected cells; host or cells: HEK293T

[6] = target: T6, human KOR (Gi3) (Homo sapiens, UniProt P41145, D266A); conditions: HEK-293T
T6 construct: expressed in transfected cells; host or cells: HEK293T

[7] = target: T7, human KOR (Gi3) (Homo sapiens, UniProt P41145)
T7 construct: expressed in transfected cells; host or cells: HEK293T

[8] = target: T8, human KOR (Gi3) (Homo sapiens, UniProt P41145, D334A); conditions: HEK-293T
T8 construct: expressed in transfected cells; host or cells: HEK293T

[9] = target: T9, human KOR (Gi3) (Homo sapiens, UniProt P41145, T94V); conditions: HEK-293T
T9 construct: expressed in transfected cells; host or cells: HEK293T

[10] = target: T10, human KOR (Gi3) (Homo sapiens, UniProt P41145, D155A); conditions: HEK-293T
T10 construct: expressed in transfected cells; host or cells: HEK293T

[11] = target: T11, human KOR (Gi3) (Homo sapiens, UniProt P41145, N141A); conditions: HEK-293T
T11 construct: expressed in transfected cells; host or cells: HEK293T

[12] = target: T12, human KOR (Gi3) (Homo sapiens, UniProt P41145, R271A); conditions: HEK-293T
T12 construct: expressed in transfected cells; host or cells: HEK293T

[13] = target: T13, human KOR (Gi3) (Homo sapiens, UniProt P41145, Q115N); conditions: HEK-293T
T13 construct: expressed in transfected cells; host or cells: HEK293T

[14] = target: T14, human KOR (Gi3) (Homo sapiens, UniProt P41145, K227A); conditions: HEK-293T
T14 construct: expressed in transfected cells; host or cells: HEK293T

[15] = target: T15, human KOR (β-arrestin 1) (Homo sapiens, UniProt P41145, T94V); conditions: HEK-293T
T15 construct: expressed in transfected cells; host or cells: HEK293T

[16] = target: T16, human KOR (β-arrestin 1) (Homo sapiens, UniProt P41145, F283A); conditions: HEK-293T
T16 construct: expressed in transfected cells; host or cells: HEK293T

[17] = target: T17, human KOR (β-arrestin 1) (Homo sapiens, UniProt P41145, E297A); conditions: HEK-293T
T17 construct: expressed in transfected cells; host or cells: HEK293T

[18] = target: T18, human KOR (β-arrestin 1) (Homo sapiens, UniProt P41145, R257A); conditions: HEK-293T
T18 construct: expressed in transfected cells; host or cells: HEK293T

[19] = target: T19, human KOR (β-arrestin 1) (Homo sapiens, UniProt P41145, N141A); conditions: HEK-293T
T19 construct: expressed in transfected cells; host or cells: HEK293T

[20] = target: T20, human KOR (β-arrestin 1) (Homo sapiens, UniProt P41145, R170A); conditions: HEK-293T
T20 construct: expressed in transfected cells; host or cells: HEK293T

[21] = target: T21, human KOR (β-arrestin 1) (Homo sapiens, UniProt P41145, R271A); conditions: HEK-293T
T21 construct: expressed in transfected cells; host or cells: HEK293T

[22] = target: T22, human KOR (β-arrestin 1) (Homo sapiens, UniProt P41145)
T22 construct: expressed in transfected cells; host or cells: HEK293T

[23] = target: T23, human KOR (β-arrestin 1) (Homo sapiens, UniProt P41145, F114L); conditions: HEK-293T
T23 construct: expressed in transfected cells; host or cells: HEK293T

[24] = target: T24, human KOR (β-arrestin 1) (Homo sapiens, UniProt P41145, Y139L); conditions: HEK-293T
T24 construct: expressed in transfected cells; host or cells: HEK293T

[25] = target: T25, human KOR (β-arrestin 1) (Homo sapiens, UniProt P41145, N326A); conditions: HEK-293T
T25 construct: expressed in transfected cells; host or cells: HEK293T

[26] = target: T26, human KOR (β-arrestin 1) (Homo sapiens, UniProt P41145, Q115N); conditions: HEK-293T
T26 construct: expressed in transfected cells; host or cells: HEK293T

[27] = target: T27, human KOR (β-arrestin 1) (Homo sapiens, UniProt P41145, K227A); conditions: HEK-293T
T27 construct: expressed in transfected cells; host or cells: HEK293T

[28] = target: T28, human KOR (β-arrestin 1) (Homo sapiens, UniProt P41145, G319L); conditions: HEK-293T
T28 construct: expressed in transfected cells; host or cells: HEK293T

[29] = target: T29, human KOR (β-arrestin 1) (Homo sapiens, UniProt P41145, N322A); conditions: HEK-293T
T29 construct: expressed in transfected cells; host or cells: HEK293T

[30] = target: T30, human KOR (β-arrestin 1) (Homo sapiens, UniProt P41145, D105A); conditions: HEK-293T
T30 construct: expressed in transfected cells; host or cells: HEK293T

[31] = target: T31, human KOR (β-arrestin 1) (Homo sapiens, UniProt P41145, Y320L); conditions: HEK-293T
T31 construct: expressed in transfected cells; host or cells: HEK293T

[32] = target: T32, human KOR (β-arrestin 1) (Homo sapiens, UniProt P41145, D334A); conditions: HEK-293T
T32 construct: expressed in transfected cells; host or cells: HEK293T

[33] = target: T33, human KOR (β-arrestin 1) (Homo sapiens, UniProt P41145, L253A); conditions: HEK-293T
T33 construct: expressed in transfected cells; host or cells: HEK293T

[34] = target: T34, human KOR (β-arrestin 1) (Homo sapiens, UniProt P41145, R274A); conditions: HEK-293T
T34 construct: expressed in transfected cells; host or cells: HEK293T

[35] = target: T35, human KOR (β-arrestin 1) (Homo sapiens, UniProt P41145, D155A); conditions: HEK-293T
T35 construct: expressed in transfected cells; host or cells: HEK293T

[36] = target: T36, human KOR (β-arrestin 1) (Homo sapiens, UniProt P41145, K200A); conditions: HEK-293T
T36 construct: expressed in transfected cells; host or cells: HEK293T

[37] = target: T37, human KOR (Gi2) (Homo sapiens, UniProt P41145, D105A); conditions: HEK-293T
T37 construct: expressed in transfected cells; host or cells: HEK293T

[38] = HEK-293T, read-out: βArrestin1 (Figure 5A concentration-response, replicate values)

T22 sequence (P41145 whole entry): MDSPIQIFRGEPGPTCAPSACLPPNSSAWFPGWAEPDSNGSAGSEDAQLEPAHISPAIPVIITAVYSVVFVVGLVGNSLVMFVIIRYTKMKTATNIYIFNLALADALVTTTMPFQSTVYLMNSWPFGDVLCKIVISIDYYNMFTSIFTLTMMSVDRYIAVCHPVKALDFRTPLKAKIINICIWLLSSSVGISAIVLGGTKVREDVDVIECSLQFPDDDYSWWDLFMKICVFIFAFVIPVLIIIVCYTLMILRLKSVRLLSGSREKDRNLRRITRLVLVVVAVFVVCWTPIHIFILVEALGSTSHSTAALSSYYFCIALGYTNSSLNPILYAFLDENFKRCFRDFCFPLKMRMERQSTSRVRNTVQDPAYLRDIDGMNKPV
T7 sequence (P41145 whole entry): as above
T4 sequence (P41145 whole entry N322A): as the sequence (P41145 whole entry) above, with N322A counted along it
T29 sequence (P41145 whole entry N322A): as the sequence (P41145 whole entry) above, with N322A counted along it
T25 sequence (P41145 whole entry N326A): as the sequence (P41145 whole entry) above, with N326A counted along it
T11 sequence (P41145 whole entry N141A): as the sequence (P41145 whole entry) above, with N141A counted along it
T19 sequence (P41145 whole entry N141A): as the sequence (P41145 whole entry) above, with N141A counted along it
T26 sequence (P41145 whole entry Q115N): as the sequence (P41145 whole entry) above, with Q115N counted along it
T13 sequence (P41145 whole entry Q115N): as the sequence (P41145 whole entry) above, with Q115N counted along it
T8 sequence (P41145 whole entry D334A): as the sequence (P41145 whole entry) above, with D334A counted along it
T32 sequence (P41145 whole entry D334A): as the sequence (P41145 whole entry) above, with D334A counted along it
T28 sequence (P41145 whole entry G319L): as the sequence (P41145 whole entry) above, with G319L counted along it
T20 sequence (P41145 whole entry R170A): as the sequence (P41145 whole entry) above, with R170A counted along it
T16 sequence (P41145 whole entry F283A): as the sequence (P41145 whole entry) above, with F283A counted along it
T15 sequence (P41145 whole entry T94V): as the sequence (P41145 whole entry) above, with T94V counted along it
T9 sequence (P41145 whole entry T94V): as the sequence (P41145 whole entry) above, with T94V counted along it
T33 sequence (P41145 whole entry L253A): as the sequence (P41145 whole entry) above, with L253A counted along it
T3 sequence (P41145 whole entry D105A): as the sequence (P41145 whole entry) above, with D105A counted along it
T37 sequence (P41145 whole entry D105A): as the sequence (P41145 whole entry) above, with D105A counted along it
T30 sequence (P41145 whole entry D105A): as the sequence (P41145 whole entry) above, with D105A counted along it
T24 sequence (P41145 whole entry Y139L): as the sequence (P41145 whole entry) above, with Y139L counted along it
T35 sequence (P41145 whole entry D155A): as the sequence (P41145 whole entry) above, with D155A counted along it
T10 sequence (P41145 whole entry D155A): as the sequence (P41145 whole entry) above, with D155A counted along it
T36 sequence (P41145 whole entry K200A): as the sequence (P41145 whole entry) above, with K200A counted along it
T5 sequence (P41145 whole entry K200A): as the sequence (P41145 whole entry) above, with K200A counted along it
T6 sequence (P41145 whole entry D266A): as the sequence (P41145 whole entry) above, with D266A counted along it
T1 sequence (P41145 whole entry R257A): as the sequence (P41145 whole entry) above, with R257A counted along it
T18 sequence (P41145 whole entry R257A): as the sequence (P41145 whole entry) above, with R257A counted along it
T34 sequence (P41145 whole entry R274A): as the sequence (P41145 whole entry) above, with R274A counted along it
T23 sequence (P41145 whole entry F114L): as the sequence (P41145 whole entry) above, with F114L counted along it
T17 sequence (P41145 whole entry E297A): as the sequence (P41145 whole entry) above, with E297A counted along it
T2 sequence (P41145 whole entry E297A): as the sequence (P41145 whole entry) above, with E297A counted along it
T31 sequence (P41145 whole entry Y320L): as the sequence (P41145 whole entry) above, with Y320L counted along it
T27 sequence (P41145 whole entry K227A): as the sequence (P41145 whole entry) above, with K227A counted along it
T14 sequence (P41145 whole entry K227A): as the sequence (P41145 whole entry) above, with K227A counted along it
T21 sequence (P41145 whole entry R271A): as the sequence (P41145 whole entry) above, with R271A counted along it
T12 sequence (P41145 whole entry R271A): as the sequence (P41145 whole entry) above, with R271A counted along it

## CN(C(=O)/C=C/c1ccoc1)[C@@H]1CC[C@@]2(O)[C@H]3Cc4ccc(O)c5c4[C@@]2(CCN3CC2CC2)[C@H]1O5 [Nalfurafine, nalfurafine]
[1]
  Emax: 100%
[2]
  Emax: 100%
[3]
  Emax: 81.7%
[4]
  Emax: 95.8%
[5]
  Emax: 93.1%
[6]
  Emax: 105%
[7]
  Emax%: 99.93%
[7]; HEK-293T
  Emax: 100%
[8]
  Emax: 101%
[9]
  Emax: 98.2%
[10]
  Emax: 77.8%
[11]
  Emax: 107%
[12]
  Emax: 103%
[13]
  Emax: 78.7%
[14]
  Emax: 106%
[15]
  Emax: 73.2%
[16]
  Emax: 100%
[17]
  Emax: 101%
[18]
  Emax: 103%
[19]
  Emax: 91.3%
[20]
  Emax: 81.8%
[21]
  Emax: 101%
[22]
  Emax%: 52.03% and 50%
[22]; HEK-293T
  Emax: 52.1%
[22]; [38]
  activation at 0.01 µM: 47.1%
  activation at 0.1 µM: 49.9%
  activation at 1 µM: 52.7%
[23]
  Emax: 33.9%
[24]
  Emax: 92.8%
[25]
  Emax: 65.2%
[26]
  Emax: 62.2%
[27]
  Emax: 77.5%
[28]
  Emax: 60.4%
[29]
  Emax: 101%
[30]
  Emax: 91.6%
[31]
  Emax: 83.6%
[32]
  Emax: 71.1%
[33]
  Emax: 94.5%
[34]
  Emax: 78.7%
[35]
  Emax: 86.5%
[36]
  Emax: 81.3%
[37]
  Emax: 96.1%
